ChEMBL document CHEMBL5356986, “Research status of indole-modified natural products” (RSC Med Chem, 2023)
Values after ≈ are worked out from the molar mass of the structure shown.

Legend:
[1] = Antioxidant activity assessed as DPPH radical scavenging activity; assay type: functional
[2] = tested on: Leishmania donovani; test: Antileishmanial activity against Leishmania donovani assessed as parasite growth inhibition; assay type: functional, organism-based
[3] = molecular target: Acetylcholinesterase (Homo sapiens, UniProt P22303); test: Inhibition of Acetylcholinesterase (unknown origin)
[4] = molecular target: T1, Alpha glucosidase (Homo sapiens, UniProt O43451+P10253+P14410+Q2M2H8); test: Inhibition of Alpha-glucosidase (unknown origin) spectrophotometric analysis; assay type: protein assay
[5] = tested on: HeLa; test: Cytotoxicity against human HeLa cells assessed as reduction in cell viability incubated for 48 hrs by MTT assay; assay type: functional, cell-based
[6] = tested on: PC-3; test: Antiproliferative activity against human PC-3 cells assessed as reduction in cell growth measured after 24 hrs by MTT assay; assay type: functional, cell-based; details: PC-3, 24 h
[7] = tested on: Caco-2; test: Antiproliferative activity against human Caco-2 cells incubated for 96 hrs by MTT assay; assay type: functional, cell-based; details: Caco-2, 96 h
[8] = tested on: Arthrodermataceae; test: Antibacterial activity against Arthrodermataceae; assay type: functional
[9] = tested on: Trichophyton mentagrophytes; test: Antifungal activity against Trichophyton mentagrophytes assessed as inhibition of microbial growth; assay type: functional
[10] = tested on: Nannizzia gypsea; test: Antifungal activity against Microsporum gypseum assessed as fungal growth inhibition; assay type: functional
[11] = tested on: MCF7; test: Antiproliferative activity against human MCF7 cells assessed as inhibition of cell growth by CCK8 assay; assay type: functional, cell-based
[12] = tested on: HepG2; test: Antiproliferative activity against human HepG2 cells assessed as reduction in cell viability incubated for 48 hrs by MTT assay; assay type: functional, cell-based; details: HepG2, 48 h
[13] = tested on: HeLa; test: Cytotoxicity against human HeLa cells assessed as cell growth inhibition incubated for 24 hrs by MTT assay; assay type: functional, cell-based
[14] = molecular target: Prostaglandin G/H synthase 2 (Homo sapiens, UniProt P35354); test: Inhibition of COX-2 (unknown origin)
[15] = tested on: SMMC-7721; test: Cytotoxicity against human SMMC-7721 cells assessed as reduction in cell viability by SRB assay; assay type: functional, cell-based
[16] = tested on: HepG2; test: Cytotoxicity against human HepG2 cells assessed as reduction in cell viability by MTT assay; assay type: functional
[17] = tested on: Hep 3B2; test: Cytotoxicity against human Hep3B cells assessed as cell growth inhibition by MTT colorimetric assay; assay type: functional, cell-based
[18] = tested on: Toxoplasma gondii; test: Antiparasitic activity against Toxoplasma gondii tachyzoites infected in human HeLa cells; assay type: functional, organism-based
[19] = tested on: A549; test: Antiproliferative activity against human A549 cells assessed as reduction in cell growth incubated for 72 hrs by MTT assay; assay type: functional, cell-based; details: A549, 72 h
[20] = molecular target: T1, Alpha glucosidase; test: Inhibition of Alpha-glucosidase (unknown origin) using p-nitrophenyl glucopyranoside as substrate by UV based microplate reader analysis; assay type: protein assay
[21] = tested on: HepG2; test: Cytotoxicity against human HepG2 cells by MTT assay; assay type: functional, cell-based
[22] = tested on: Aspergillus niger; test: […] against Aspergillus niger assessed as […] incubated for 24 hrs by agar disc diffusion assay; assay type: functional
[23] = tested on: Bacillus subtilis; test: Antibacterial activity against Bacillus subtilis assessed as reduction in microbial growth; assay type: functional
[24] = tested on: Candida albicans; test: Antibacterial activity against Candida albicans assessed as reduction in bacterial growth; assay type: functional
[25] = tested on: Klebsiella pneumoniae; test: Antibacterial activity against Klebsiella pneumoniae assessed as reduction in bacterial growth by broth microdilution method; assay type: functional
[26] = tested on: Escherichia coli; test: Antibacterial activity against Escherichia coli assessed as reduction in bacterial cell viability; assay type: functional
[27] = tested on: RAW264.7; test: Anti-inflammatory activity in mouse RAW264.7 cells assessed as inhibition of LPS-induced NO production; assay type: functional, cell-based
[28] = tested on: Staphylococcus aureus; test: Antibacterial activity against Staphylococcus aureus assessed as reduction in microbial growth; assay type: functional
[29] = tested on: Fusarium oxysporum; test: Antifungal activity against Fusarium oxysporum assessed as inhibition of fungal growth; assay type: functional
[30] = Cytotoxicity against mouse RAW264.7 cells assessed as reduction in cell viability incubated for 48 hrs by MTT assay; assay type: toxicity, cell-based
[31] = tested on: SMMC-7721; test: Cytotoxicity against human SMMC-7721 cells assessed as reduction in cell viability; assay type: functional, cell-based
[32] = tested on: Trichophyton mentagrophytes; test: Antifungal activity against Trichophyton mentagrophytes assessed as inhibition of fungal growth incubated for 48 hrs by serial plate dilution method; assay type: functional
[33] = Inhibition of hyaluronidase (unknown origin); set-up: species or system Homo sapiens

Acetylcholinesterase, sequence (P22303 whole entry): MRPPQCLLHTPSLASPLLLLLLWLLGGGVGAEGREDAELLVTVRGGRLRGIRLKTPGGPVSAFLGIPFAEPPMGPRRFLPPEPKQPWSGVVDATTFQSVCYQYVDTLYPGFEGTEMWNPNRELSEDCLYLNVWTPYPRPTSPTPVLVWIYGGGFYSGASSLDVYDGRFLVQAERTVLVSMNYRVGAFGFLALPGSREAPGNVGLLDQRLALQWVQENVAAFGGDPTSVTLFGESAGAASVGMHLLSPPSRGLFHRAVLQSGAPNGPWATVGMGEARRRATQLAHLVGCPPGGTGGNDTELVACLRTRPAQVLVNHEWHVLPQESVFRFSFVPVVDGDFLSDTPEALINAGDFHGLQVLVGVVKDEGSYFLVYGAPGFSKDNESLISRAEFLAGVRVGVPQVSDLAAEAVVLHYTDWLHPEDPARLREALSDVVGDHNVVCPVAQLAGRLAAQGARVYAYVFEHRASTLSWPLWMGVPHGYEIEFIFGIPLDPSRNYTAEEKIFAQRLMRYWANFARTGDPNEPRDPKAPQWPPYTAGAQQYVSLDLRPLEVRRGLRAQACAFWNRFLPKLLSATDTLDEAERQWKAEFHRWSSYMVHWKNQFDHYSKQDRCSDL
Prostaglandin G/H synthase 2, sequence (P35354 whole entry): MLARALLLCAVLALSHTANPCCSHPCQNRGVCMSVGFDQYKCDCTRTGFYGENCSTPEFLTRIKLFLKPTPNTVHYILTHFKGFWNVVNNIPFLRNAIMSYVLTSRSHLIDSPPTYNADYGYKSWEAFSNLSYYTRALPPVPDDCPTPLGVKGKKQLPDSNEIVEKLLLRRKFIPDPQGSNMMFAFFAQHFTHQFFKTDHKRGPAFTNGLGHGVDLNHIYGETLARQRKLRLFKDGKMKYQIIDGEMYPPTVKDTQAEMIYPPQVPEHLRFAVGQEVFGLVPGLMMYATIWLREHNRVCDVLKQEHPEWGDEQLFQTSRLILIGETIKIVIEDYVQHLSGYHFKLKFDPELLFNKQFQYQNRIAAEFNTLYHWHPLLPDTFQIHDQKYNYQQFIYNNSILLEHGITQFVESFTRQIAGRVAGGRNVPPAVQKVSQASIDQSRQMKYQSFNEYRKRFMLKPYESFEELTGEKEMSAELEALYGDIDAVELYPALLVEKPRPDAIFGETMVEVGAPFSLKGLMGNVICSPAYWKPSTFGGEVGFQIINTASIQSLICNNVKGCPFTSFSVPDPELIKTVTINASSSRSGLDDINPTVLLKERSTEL

O=C(CCC(c1ccccc1)c1c[nH]c2ccccc12)c1c(O)c2ccccc2oc1=O (centres undefined)
IC50 [1]: 12.4 µM | IC50 [2]: 95.5 µg/mL (≈ 226 µM)

O=C1Cc2cc(OCc3ccc(F)cc3)ccc2C=C1C(=O)NCCc1c[nH]c2ccccc12
IC50 [3]: 0.16 µM

COc1ccc2c(CSC(=S)NCCc3c[nH]c4ccccc34)cc(=O)oc2c1
IC50 [4]: 85 µM

COc1cc(/C=C/C(=O)CC(=O)/C=C/c2ccc(O)c(OC)c2)ccc1O [CURCUMIN]
IC50 [5]: 25.4 µM | IC50 [6]: 12.2 µM | IC50 [7]: 47.6 µM

COc1ccc(/C=C/C(=O)c2c[nH]c3ccccc23)cc1
MIC [8]: 8 µg/mL (≈ 28.8 µM) | MIC [9]: 8 µg/mL | MIC [10]: 4 µg/mL (≈ 14.4 µM)

C[C@]12CC[C@H]3[C@]4(C=C[C@]5(C[C@@H](O)CC[C@]35C)OO4)[C@@H]1CC/C2=N\N=C1/C(=O)Nc2ccc(Cl)cc21
IC50 [11]: 9.05 µM | IC50 [12]: 7.97 µM | IC50 [13]: 5.69 µM

CC1=NN(c2ccccc2)C(=O)/C1=C\c1cn(CCCOc2cc(O)c3c(=O)cc(-c4ccccc4)oc3c2)c2ccccc12
IC50 [14]: 0.7 µM

CCOC(=O)c1ccc2c(c1)c1c(n2CCN2CCNCC2)-c2cc(C(C)C)ccc2[C@@]2(C)CCC[C@@](C)(C(=O)OC)[C@H]12
IC50 [15]: < 1.39 µM | IC50 [16]: 0.51 µM | IC50 [17]: < 0.73 µM

SPIRAMYCIN
IC50 [18]: 262 µM

CCOc1c(Br)cc(/C=C/C(=O)c2cc3ccccc3n2C)cc1OC
IC50 [19]: 4.3 µM

C=C(C)[C@@H](C)CC[C@@H](C)[C@H]1CC[C@@]2(C)[C@@H]3CC[C@H]4[C@H](C)C(=O)CC[C@@]45C[C@@]35CC[C@]12C
IC50 [20]: 603.8 µM

O=C(CCC(c1c(Cl)cccc1Cl)c1c[nH]c2ccccc12)c1c(O)c2ccccc2oc1=O (centres undefined)
IC50 [1]: 13.5 µM | IC50 [2]: 95 µg/mL (≈ 193 µM)

COc1ccc(C(=O)/C=C/c2ccc3c(ccn3C)c2)c2c1C=CC(C)(C)O2
IC50 [21]: 0.82 µM

NC(Cc1c[nH]c2ccccc12)C(=O)Oc1ccc2c(=O)c3ccccc3oc2c1 (centres undefined)
MIC [22]: 21 µg/mL (≈ 52.7 µM) | MIC [23]: 16 µg/mL | MIC [24]: 20 µg/mL (≈ 50.2 µM) | MIC [25]: 22 µg/mL (≈ 55.2 µM) | MIC [26]: 15 µg/mL (≈ 37.6 µM) | IC50 [27]: 26 µg/mL (≈ 65.3 µM) | MIC [28]: 16 µg/mL | MIC [29]: 20 µg/mL (≈ 50.2 µM)

C=C(C)[C@@H]1CC[C@]2(C)CC[C@]3(C)[C@H](CC[C@@H]4[C@@]5(C)Cc6c([nH]c7cc(I)ccc67)C(C)(C)[C@@H]5CC[C@]43C)[C@@H]12
IC50 at 48 h [30]: 22.6 µM

COc1ccc(/C=C/C(=O)/C=C/c2c[nH]c3ccccc23)c(OC)c1OC
IC50 [5]: 3.31 µM | IC50 [6]: 3.15 µM

Cc1ccc2[nH]c3c(c2c1)C[C@]1(C)[C@H]2CC=C4[C@@H]5[C@@H](C)[C@H](C)CC[C@]5(C(=O)NCCCN(C)C)CC[C@@]4(C)[C@]2(C)CC[C@H]1C3(C)C
IC50 [31]: 1.08 µM

COc1cc(/C=C/C(=O)c2c[nH]c3ccccc23)cc(Br)c1OC
MIC [32]: 32 µg/mL (≈ 82.8 µM) | MIC [9]: 16 µg/mL | MIC [10]: 1 µg/mL (≈ 2.59 µM)

CC1(C)CC[C@]2(C(=O)O)CC[C@]3(C)C(=CC[C@@H]4[C@@]5(C)Cc6c([nH]c7c(F)cc(F)cc67)C(C)(C)[C@@H]5CC[C@]43C)[C@@H]2C1
IC50 [33]: 9.97 µM
